# Test results taken from article PMC10611581, “Directed evolution unlocks oxygen reactivity for a nicotine-degrading flavoenzyme” (Nature Chemical Biology, 2023).
# B1: nicotine oxidoreductase (NicA2), wild type (enzyme, Pseudomonas putida S16, UniProt F8G0P2 39-482, looked up)
# chain: TQKTNRASTVKGGFDYDVVVVGGGFAGATAARECGLQGYRTLLLEARSRLGGRTFTSRFAGQEIEFGGAWVHWLQPHVWAEMQRYGLGVVEDPLTNLDKTLIMYNDGSVESISPDEFGKNIRIAFEKLCHDAWEVFPRPHEPMFTERARELDKSSVLDRIKTLGLSRLQQAQINSYMALYAGETTDKFGLPGVLKLFACGGWNYDAFMDTETHYRIQGGTIGLINAMLTDSGAEVRMSVPVTAVEQVNGGVKIKTDDDEIITAGVVVMTVPLNTYKHIGFTPALSKGKQRFIKEGQLSKGAKLYVHVKQNLGRVFAFADEQQPLNWVQTHDYSDELGTILSITIARKETIDVNDRDAVTREVQKMFPGVEVLGTAAYDWTADPFSLGAWAAYGVGQLSRLKDLQAAEGRILFAGAETSNGWHANIDGAVESGLRAGREVKQLLS
# notes: nicotine oxidoreductase NicA2 of Pseudomonas putida S16; crystallised with N-methylmyosmine (NMM); also called wild-type NicA2; WT; source: E. coli BL21 (DE3), purified (HisTrap, ULP-1 cleavage, HiTrap Q, Superdex 200)
# Legend:
# [1] = molecular target: T1, NicA2 (nicotine oxidoreductase) (Pseudomonas putida, UniProt F8G0P2); test: bound flavin absorbance at […] nm; ThermoFAD; type: binding; conditions: co-purified bound cofactor
# T1 construct: expressed in E. coli BL21 (DE3) from pET28a-His-SUMO-nicA2, His-SUMO tag cleaved by ULP-1
# T1 sequence (F8G0P2 39-482 limits assumed): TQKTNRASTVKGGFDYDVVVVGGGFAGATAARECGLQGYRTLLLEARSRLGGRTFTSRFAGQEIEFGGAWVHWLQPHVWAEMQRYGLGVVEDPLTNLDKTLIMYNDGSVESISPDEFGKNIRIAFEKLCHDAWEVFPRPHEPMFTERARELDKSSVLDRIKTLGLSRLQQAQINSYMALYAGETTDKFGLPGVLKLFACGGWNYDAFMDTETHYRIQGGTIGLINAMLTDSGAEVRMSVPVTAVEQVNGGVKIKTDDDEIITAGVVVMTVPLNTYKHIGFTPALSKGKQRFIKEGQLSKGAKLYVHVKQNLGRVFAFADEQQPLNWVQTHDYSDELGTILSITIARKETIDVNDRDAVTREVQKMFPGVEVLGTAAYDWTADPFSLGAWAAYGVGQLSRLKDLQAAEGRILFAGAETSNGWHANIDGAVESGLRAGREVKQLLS
# [2] = molecular target: the molecule itself; test: crystal structure; hanging-drop vapor diffusion at 4 °C; NicA2 v321 ligand-free and with 20 mM NMM (sodium citrate pH 5.0, 18% PEG 6000), wild type with 2.3 mM NMM (0.2 M ammonium citrate pH 7.0, 20% PEG 3350); two molecules in the asymmetric unit
molecule,measurement,setting,value
Cc1cc2nc3c(=O)[nH]c(=O)nc-3n(C[C@H](O)[C@H](O)[C@H](O)COP(=O)(O)OP(=O)(O)OC[C@H]3O[C@@H](n4cnc5c(N)ncnc54)[C@H](O)[C@@H]3O)c2cc1C [flavin adenine dinucleotide],bound flavin absorbance at 450 nm; ThermoFAD,[1],determined using the absorbance of bound FAD cofactor
B1,stoichiometry N,[2],2
